These results are taken from patent US20240277749A1, “NEW FORMULATIONS COMPRISING AZACITIDINE” (NANEXA AB, priority 2021, published 2024).

The nature of one data set: clinical. Particulars: human, plasma, sc, 100 mg/m2.
The conditions of data set [1]: standard of care over seven consecutive days by injection or infusions, cited from earlier work.

As to `Nc1ncn([C@@H]2O[C@H](CO)[C@@H](O)[C@H]2O)c(=O)n1` [azacitidine, 4-amino-1-®-D-ribofuranosyl-s-triazin-2(1H)-one], in “clinical”, the area under the curve AUC(0-inf) is 1120 ng·h/mL, the Cmax was found to be 562 ng/mL, the Tmax came out at 0.433 h and the half-life is 6.82 h. The “average AUC∞” value in data set [1] (525 mg/m^2 of BSA) was 960 ± 458 ng·h/mL. Also, in data set [1], the “average Cmax” value was 750 ± 403 ng/mL.

The term AUC(0-inf) denotes the area under the concentration-time curve extrapolated to infinity. What is called Cmax is the maximum level reached in the sampled fluid or tissue. One may read the Tmax as the time from dosing to the highest level. As usually defined, the half-life is the time in which the quantity being followed falls by half. Read a high half-life as slow decline.
